Article PMC11238318 (ACS Omega, 2024)

Biological target: Pyruvate dehydrogenase kinase 3 (PDK3) (Homo sapiens, UniProt Q15120)
Assay: intrinsic Trp fluorescence quenching of purified PDK3
Type: binding

Sequence of Pyruvate dehydrogenase kinase 3 (PDK3) (Q15120 whole entry): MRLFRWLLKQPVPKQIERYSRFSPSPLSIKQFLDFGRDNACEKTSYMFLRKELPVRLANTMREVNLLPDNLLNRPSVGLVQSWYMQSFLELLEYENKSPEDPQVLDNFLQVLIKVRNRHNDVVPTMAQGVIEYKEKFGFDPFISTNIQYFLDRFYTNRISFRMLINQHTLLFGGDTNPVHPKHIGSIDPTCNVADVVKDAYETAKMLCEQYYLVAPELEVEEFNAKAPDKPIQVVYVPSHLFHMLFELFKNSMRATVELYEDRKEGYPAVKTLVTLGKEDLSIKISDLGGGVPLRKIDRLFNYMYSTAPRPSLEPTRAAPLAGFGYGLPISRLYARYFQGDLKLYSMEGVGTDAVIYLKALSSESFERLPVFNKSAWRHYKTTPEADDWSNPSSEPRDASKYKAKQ

- Kd: 8.77 µM
Compound: O=c1c(O)c(-c2cc(O)c(O)c(O)c2)oc2cc(O)cc(O)c12 [MT, Myricetin]
